Measured values published in patent US7501233B2, “Method for measuring the vitality of cells” (priority 2000, dated 2009).
*1 amine or outer side, *2 acyl side, *3 side chain or, on linkers, in order; H or OH if unused. Where a SMILES comes first, the peptide text is derived from it. Bridges are numbered along the chain shown (N, C = ends). Roman numbers before positions name the chains, in order. [ ]: non-standard residue; d: D form. Actinocin(9to1) = Cc1c2oc3c(C)ccc(C(=O)[*:1])c3nc-2c(C(=O)[*:2])c(N)c1=O; NMeV = CN[C@H](C(=O)O)C(C)C; Sar = CNCC(=O)O

Test system: Jurkat cells
Experiment: Electrorotation measurement (ER spectra) of single cells in a microelectrode field cage
Type: cell-based
Excerpt: An instrument already described by C. C. Reichle, T. Schnelle, T. Müller, T. Leya and G. Fuhr (2000, A new microsystem for automatic electrorotation measurements using laser tweezers, Biochimica et Biophysica Acta 1459, p. 218- 229), a combination of dielectrophoretical field cages with optical traps, especially laser tweezers, was used for determination of the electrorotation spectra (FIG. 6). […] Reichle and G. Fuhr 2000, Combined dielectrophoretic field cages and laser tweezers for electrorotation, Applied Physics B, Lasers and Optics, Springer Verlag.
Jurkat T lymphoma cells and U937 monocytic cells were cultivated in RPMI-1640 medium supplemented with 10% fetal calf serum and 100 IU/ml penicillin as well as 100 IU/ml streptomycin. Apoptosis was triggered by addition of 5 μg/ml actinomycin D in a culture that was seeded the day before with 2×10^5 cells per ml. The classical morphological changes during apoptosis were documented photographically (see FIG. 1). At different times, an aliquot was taken from the culture, added to a mixture of isotonic phosphate buffer (PBS, D8662 from SIGMA with calcium and magnesium) and, if desired, 0.3 M inositol with correspondingly indicated electrical conductivity, and introduced in a device for measurement of the electrorotation in a microelectrode system. As a control, untreated Jurkat cells were used (FIG. 5). For comparison, electrorotation spectra (ER spectra) were determined from ionomycin-treated cells ([…]) as well as from cells the plasma membrane of which had been damaged by increasing the voltage from 4 V to 6.8 V or a treatment with optical tweezers with 30-60 mW (2.8 A of the 1 W Nd:YAG laser, TEM00, 1064 nm, LD 3000i, Laser Quantum Ltd., Manchester, UK, P.A.L.M. System) for 15 minutes. For this, the cells were transferred individually to the center of the quadrupole or octupole of the microelectrode system. For this, optical tweezers with a power of approx. 30 mW were used in the indicated cases at the site of holding. The frequency of the cell rotation was measured either automatically or using a timer (FIG. 2). The uptake of propidium iodine (5 μm) in necrotically damaged cells or comparative measurements with vital and apoptotic cells (FIGS. 3 and 4) was measured by confocal nanofluorometry (Gradl, T. Müller, C. Reichle, T. Schnelle and G. Fuhr, 1999, Micro-Electrode Systems for Cell Analysis, European Journal of Cell Biology, Suppl. 49, Vol. 78; T. Schnelle, T. Müller, G. Gradl, S. G. Shirley and G. Fuhr, 2000, Dielectrophoretic manipulation of suspended submicron particles, ELECTROPHORESIS 2000, 21, p. 66-73).
The device for measurement of the electrorotation was attached to a fluorescence correlation spectrometer. The cells were made visible over a 40×W 1.2 NA lens. They were excited with 1.5 μW by a helium-neon laser with a wavelength of 543 nm and the radiated fluorescence was passed through a 585 DF 35 band pass filter over a 50 μm pinhole to a photodiode, with which the fluorescence photons were counted.

[1] = ionomycin-treated cell vs. untreated cell, PBS

Cc1c2oc3c(C)ccc(C(=O)N[C@@H]4C(=O)N[C@H](C(C)C)C(=O)N5CCC[C@H]5C(=O)N(C)CC(=O)N(C)[C@@H](C(C)C)C(=O)O[C@@H]4C)c3nc-2c(C(=O)N[C@@H]2C(=O)N[C@H](C(C)C)C(=O)N3CCC[C@H]3C(=O)N(C)CC(=O)N(C)[C@@H](C(C)C)C(=O)O[C@@H]2C)c(N)c1=O [actinomycin D, Actinomycin D] (I: T[dV]P[Sar][NMeV] / II: T[dV]P[Sar][NMeV]; ester I:1-I:C, II:1-II:C; linker I:N-II:N via Actinocin(9to1))
ratio of rotation speed at 10 MHz to rotation speed at 2.5 MHz (apoptotic Jurkat cell (actinomycin D, 4 hours), normal cell near 1, necrotic 0.6-0.8): 1.4 | field frequency of highest rotation speed in ER spectrum (apoptotic Jurkat cell, 5 μg/ml actinomycin D for 4 hours (FIG. 2E), normal cell maximum around 2.5 MHz): approx. 10 MHz

C[C@H](CCC(=O)O)C[C@H](C)C[C@H](C)C(=O)/C=C(\O)[C@H](C)C[C@H](C)C/C=C/[C@@H](C)[C@@H](O)[C@@H](C)[C@@H](O)C[C@@H]1CC[C@@](C)([C@H]2CC[C@@](C)([C@@H](C)O)O2)O1 [ionomycin, Ionomycin]
dielectric constant εω in the cell (ionomycin 10 μM, Jurkat cell in PBS, from fits of ER spectra, increase from 45 (untreated)): 75 | conductivity σ (as sum of σ0, Δσ1 and Δσ2) in the cell (ionomycin 10 μM, approx. 5 min, Jurkat cell in PBS, from fits of ER spectra, increase from 0.77 (untreated)): 1.15 s m^−1 | increase in the HF conductivity of the cytoplasm [1]: approx. 40% | increase of the dielectric constant of the cytoplasm [1]: more than 60%
